Data taken from US12533362B2, “Methods for treating diseases associated with ciliopathies” (ALEXION PHARMACEUTICALS, INC., priority 2017, dated 2026).

Legend:
[1] = system: NPHP patient-derived cells; assay: automated cilia-based ciliogenesis assay in NPHP patient-derived cells; format: cell-based, human
Excerpt: (§1) To identify compounds for treating diseases associated with ciliopathies such as, for example, NPHP, NPHP patient-derived cells were obtained and cell lines were established. Briefly, peeled renal epithelial cells, which are mostly proximal tubule cells (tbc) recovered from urine of NPHP1-deficient patients, were immortalized by retroviral gene transfer of SV40 T antigen. Cells were fixed and fluorescence-labeled with Hoechst (for nuclei staining), anti-γ-tubulin antibody (for basal bodies staining), and anti-ARL13B antibody (for cilia staining) for detection using immunofluorescence microscopy.
(§2) Briefly, NPHP patient-derived cells and control cells were cultured in complete media, at 39C (non-permissive temperature for SV40 expression), followed by automatic cilia analysis using immunofluorescence microscopy to measure ciliogenesis, e.g., in terms of % cilia. A spinning disk platform may be used for drug screening (FIG. 5, A-J) and ciliogenesis analysis of G3 multi-OMICs dataset (FIG. 29, A-E).
(§3) The cilia-based assay described above may be used to identify compounds that restore ciliogenesis. […] Automated random acquisition of 35 images per well may be performed, for example. Each image may have z-stack of 10 images taken at <1 μm intervals.

[2] = biological target: EP4 (Mus musculus, UniProt P32240); details: cited from earlier work
Chain of EP4 (P32240 whole entry): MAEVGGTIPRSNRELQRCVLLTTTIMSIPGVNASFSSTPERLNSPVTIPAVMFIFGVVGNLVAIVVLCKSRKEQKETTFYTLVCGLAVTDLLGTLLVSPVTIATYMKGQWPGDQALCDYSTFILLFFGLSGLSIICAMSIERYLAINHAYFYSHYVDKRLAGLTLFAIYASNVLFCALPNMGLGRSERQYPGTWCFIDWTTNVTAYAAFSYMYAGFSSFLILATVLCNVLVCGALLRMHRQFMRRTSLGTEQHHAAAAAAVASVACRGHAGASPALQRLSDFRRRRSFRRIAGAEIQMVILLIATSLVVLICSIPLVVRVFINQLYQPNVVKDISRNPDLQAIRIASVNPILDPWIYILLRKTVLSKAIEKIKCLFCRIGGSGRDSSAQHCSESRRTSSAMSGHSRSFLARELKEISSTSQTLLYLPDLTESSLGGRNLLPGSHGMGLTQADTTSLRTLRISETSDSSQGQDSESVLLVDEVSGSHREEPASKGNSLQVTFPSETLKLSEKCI

[3] = system: control normal epithelial cells; assay: automated cilia-based ciliogenesis assay in control normal epithelial cells; format: cell-based, human
Excerpt: as §1, §2
as §3, with “intervals. Consecutive imaging of nucleus (Hoechst at 461 nm), basal body (γ-tubulin at 555 nm) and cilia (ARL13b at 647 nm) may be obtained.” for “intervals.”

[4] = biological target: T1, EP1 (Mus musculus, UniProt P35375); details: cited from earlier work
T1 sequence (P35375 1-405): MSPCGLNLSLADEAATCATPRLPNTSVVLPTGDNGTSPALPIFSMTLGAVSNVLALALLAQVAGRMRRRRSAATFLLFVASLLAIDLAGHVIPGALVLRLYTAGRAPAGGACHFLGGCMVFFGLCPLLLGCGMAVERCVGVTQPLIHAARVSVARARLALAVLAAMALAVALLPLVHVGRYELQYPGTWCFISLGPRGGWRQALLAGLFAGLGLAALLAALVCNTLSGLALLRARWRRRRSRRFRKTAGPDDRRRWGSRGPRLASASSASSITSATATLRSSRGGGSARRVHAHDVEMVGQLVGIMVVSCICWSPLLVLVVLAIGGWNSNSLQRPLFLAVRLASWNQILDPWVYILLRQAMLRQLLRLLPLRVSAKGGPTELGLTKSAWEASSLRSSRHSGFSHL

[5] = biological target: EP2 (Mus musculus, UniProt Q62053); details: cited from earlier work
Chain of EP2 (Q62053 whole entry): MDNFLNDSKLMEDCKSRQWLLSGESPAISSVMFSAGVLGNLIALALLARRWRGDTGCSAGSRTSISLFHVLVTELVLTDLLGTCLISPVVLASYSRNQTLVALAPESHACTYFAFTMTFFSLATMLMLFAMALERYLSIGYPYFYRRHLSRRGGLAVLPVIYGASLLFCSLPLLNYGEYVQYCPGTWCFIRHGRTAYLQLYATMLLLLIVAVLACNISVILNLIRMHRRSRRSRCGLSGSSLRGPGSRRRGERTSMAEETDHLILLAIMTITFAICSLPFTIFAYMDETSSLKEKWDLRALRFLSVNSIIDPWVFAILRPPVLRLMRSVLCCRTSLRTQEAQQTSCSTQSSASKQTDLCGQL

[6] = system: zebrafish NPHP4 MO; assay: zebrafish NPHP4 morpholino (MO) model; format: in vivo
Description: Briefly, wild-type Tg(wt1b:GFP) transgenic zebrafish embryos were injected with morpholino (e.g., nphp4 ATG MO) at one-cell stage. At 8 hours post-fertilization (hpf), injected embryos were treated with drug or vehicle in PTU-egg water (1 mL in 12-well plates). At 24 hpf, drug treatment was renewed, and pronase was added at 36 hpf for chorion removal.

[7] = system: URECs; assay: microarray differential expression analysis of URECs; format: cell-based, human; details: for top regulated genes signaling pathway, microarray: DMSO vs 0.2 μM, 2 μM and 10 μM
Description: Microarray analysis was performed to identify expressed genes responsible for the alprostadil-mediated restoration of ciliogenesis.

[8] = biological target: T2, EP3 (Mus musculus, UniProt P30557); details: cited from earlier work
T2 sequence (P30557 1-365): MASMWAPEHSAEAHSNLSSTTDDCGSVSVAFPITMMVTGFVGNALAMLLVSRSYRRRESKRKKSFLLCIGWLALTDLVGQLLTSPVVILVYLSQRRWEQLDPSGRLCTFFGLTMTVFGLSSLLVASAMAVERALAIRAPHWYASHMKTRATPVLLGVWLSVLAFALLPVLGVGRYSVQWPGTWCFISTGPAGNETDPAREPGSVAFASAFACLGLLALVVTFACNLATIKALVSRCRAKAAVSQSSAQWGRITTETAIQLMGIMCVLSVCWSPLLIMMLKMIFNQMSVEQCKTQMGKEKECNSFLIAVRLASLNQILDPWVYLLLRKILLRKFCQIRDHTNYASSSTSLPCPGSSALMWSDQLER

[9] = meta-analysis, multiple NPHP patient-derived cell lines

## CCCCC[C@H](O)/C=C/[C@H]1[C@H](O)CC(=O)[C@@H]1CCCCCCC(=O)O [alprostadil, prostaglandin E1]
[1]; 2 μM vs DMSO, NPHP1(del) cell lines PT1, 1-03-P, 1-06-P1, 1-06-P2, 1-09-P, 1-10-P, 1-12-P, FIG. 11B
  ciliogenesis rate: significantly increases ciliogenesis rate
[1]; alprostadil titration from 1 nM to 2 μM and from 100 pM to 2 μM, FIG. 7
  % ciliated cells, dose response: significantly increases % ciliated cells in a dose-dependent manner
[1]; drug screening, various tested concentrations, FIG. 5 / FIG. 6
  effect on ciliogenesis (percentage of ciliated cells) as compared with DMSO: significantly restored ciliogenesis
[1]; five independent experiments, FIGS. 26A-26E
  % ciliated cells, multi-omics phenotypic analysis: partially restores ciliogenesis
[1]; meta-analysis, FIG. 8C
  increase in the effect on ciliogenesis in NPHP patient-derived cells versus control (DMSO 0.04%): about two-fold
[1]; [9]
  linear regression pooled slope value of effect on ciliogenesis: 1.414
  linear regression range of slope values of effect on ciliogenesis: 1.333 to 1.506
[1]; vs DMSO 0.04%, PT1 cells, FIG. 8B
  ciliogenesis, meta-analysis: significantly increases ciliogenesis
[2]
  IC50: 2.1 nM
[3]; 2 μM vs DMSO 0.04%, CTRL cells, FIG. 8A
  ciliogenesis, meta-analysis: does not significantly affect ciliogenesis
[3]; 2 μM vs DMSO, normal control cells, FIG. 11B
  ciliogenesis rate: no significant effect on ciliogenesis rate
[4]
  IC50: 36 nM
[5]
  IC50: 10 nM
[6]; 0.5 μM and 5 μM vs DMSO
  dorsal curvature (automated quantified parameter): did not significantly affect dorsal curvature
[6]; 0.5 μM and 5 μM vs DMSO, p>0.05 Fischer's exact test
  body axis curvature (normal, class I, class II, class III): did not significantly affect body axis curvature
[6]; 0.5 μM vs DMSO, p<0.05 Fischer's exact test
  percentage of severe pronephric cysts: significantly reduced the percentage of severe pronephric cysts
[6]; 5 μM vs DMSO
  percentage of severe pronephric cysts: significantly reduced the percentage of severe pronephric cysts
[7]; Qiazol extraction
  top regulated genes signaling pathway, microarray: down-regulation of cell adhesion and extracellular matrix, and up-regulation of interferon signaling
[7]; RLT extraction
  top regulated genes signaling pathway, microarray: down-regulation of cell adhesion and extracellular matrix
[7]; pathway analysis crossing microarray data with RNAseq of control vs patient
  alteration in gene expression in NPHP patient-derived cells compared to control cells: could reverse alteration in gene expression
[8]
  IC50: 1.1 nM
